# Results reported in ChEMBL document CHEMBL3397011, “A novel molecule with notable activity against multi-drug resistant tuberculosis” (Bioorg Med Chem Lett, 2015).
# How the values were obtained:
# [1] = Toxicity against macrophages (unknown origin) assessed cell viability at 4 times MIC level after 7 days by MTT assay; assay type: cell-based, Macrophage; details: read-out: Activity
# [2] = molecular target: T1, Cytochrome P450 3A4 (Homo sapiens, UniProt P08684); experiment: Inhibition of CYP3A4 in pooled mixed-gender human liver microsomes at <25 uM using triazolam substrate in presence of NADPH pre-incubated for 3 mins by HPLC-UV detection method; assay type: ADME
# T1 sequence (P08684 whole entry): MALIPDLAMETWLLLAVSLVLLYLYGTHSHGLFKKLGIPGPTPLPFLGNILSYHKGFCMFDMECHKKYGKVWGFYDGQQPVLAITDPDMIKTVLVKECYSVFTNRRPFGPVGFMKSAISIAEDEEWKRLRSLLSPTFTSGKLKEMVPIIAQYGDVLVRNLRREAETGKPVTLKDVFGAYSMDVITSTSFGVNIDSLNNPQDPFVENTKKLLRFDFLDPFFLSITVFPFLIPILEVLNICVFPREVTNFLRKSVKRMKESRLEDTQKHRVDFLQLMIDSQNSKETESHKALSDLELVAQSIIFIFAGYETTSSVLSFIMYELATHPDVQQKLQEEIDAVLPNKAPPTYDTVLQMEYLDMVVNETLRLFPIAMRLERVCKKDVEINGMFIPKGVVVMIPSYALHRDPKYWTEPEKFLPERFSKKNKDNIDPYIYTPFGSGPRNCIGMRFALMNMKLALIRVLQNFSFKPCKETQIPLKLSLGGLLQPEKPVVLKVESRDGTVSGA
# [3] = molecular target: T2, UDP-glucuronosyltransferase 2B7 (Homo sapiens, UniProt P16662); experiment: Activation of UGT2B7 in pooled mixed-gender human liver microsomes at 50 uM preincubated at 37 degC for 3 mins before UDPGA addition by HPLC method; assay type: ADME
# T2 sequence (P16662 whole entry): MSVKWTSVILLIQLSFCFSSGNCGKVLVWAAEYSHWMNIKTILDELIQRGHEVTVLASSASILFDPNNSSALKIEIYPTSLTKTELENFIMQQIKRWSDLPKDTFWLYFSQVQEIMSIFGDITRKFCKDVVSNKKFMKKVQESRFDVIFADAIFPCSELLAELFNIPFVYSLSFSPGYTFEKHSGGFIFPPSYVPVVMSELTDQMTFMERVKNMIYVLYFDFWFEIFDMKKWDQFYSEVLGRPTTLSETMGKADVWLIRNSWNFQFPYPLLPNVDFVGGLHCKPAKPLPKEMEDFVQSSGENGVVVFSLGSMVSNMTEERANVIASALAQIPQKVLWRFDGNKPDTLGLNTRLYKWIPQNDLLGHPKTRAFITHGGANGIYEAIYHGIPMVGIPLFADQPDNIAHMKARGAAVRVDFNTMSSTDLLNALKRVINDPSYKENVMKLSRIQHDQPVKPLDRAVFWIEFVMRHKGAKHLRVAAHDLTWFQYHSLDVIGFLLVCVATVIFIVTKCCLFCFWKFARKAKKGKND
# [4] = molecular target: T2, UDP-glucuronosyltransferase 2B7; experiment: Inhibition of […] in pooled mixed-gender human liver microsomes using 4-methylumbelliferone substrate by HPLC method; assay type: ADME
# [5] = molecular target: T3, Cytochrome P450 2D6 (Homo sapiens, UniProt P10635); experiment: Inhibition of […] in pooled mixed-gender human liver microsomes at <25 uM using dextromethorphan substrate in presence of NADPH pre-incubated for 3 mins by HPLC-UV detection method; assay type: ADME
# T3 sequence (P10635 whole entry): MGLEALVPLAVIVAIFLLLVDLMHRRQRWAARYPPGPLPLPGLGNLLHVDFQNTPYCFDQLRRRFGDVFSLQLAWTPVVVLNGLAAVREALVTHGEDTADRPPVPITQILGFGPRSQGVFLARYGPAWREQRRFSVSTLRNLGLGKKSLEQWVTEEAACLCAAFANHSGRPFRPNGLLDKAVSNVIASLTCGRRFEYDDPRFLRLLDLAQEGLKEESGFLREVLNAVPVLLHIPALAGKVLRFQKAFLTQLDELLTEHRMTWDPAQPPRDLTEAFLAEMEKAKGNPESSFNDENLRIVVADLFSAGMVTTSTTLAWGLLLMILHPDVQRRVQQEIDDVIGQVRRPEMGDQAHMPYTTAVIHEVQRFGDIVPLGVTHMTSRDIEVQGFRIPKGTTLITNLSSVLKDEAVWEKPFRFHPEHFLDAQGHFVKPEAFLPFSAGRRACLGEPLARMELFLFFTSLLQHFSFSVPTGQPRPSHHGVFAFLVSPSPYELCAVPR
# [6] = molecular target: T3, Cytochrome P450 2D6; experiment: Activation of […] in pooled mixed-gender human liver microsomes using dextromethorphan substrate in presence of NADPH pre-incubated for 3 mins by HPLC-UV detection method; assay type: ADME
# [7] = molecular target: T4, UDP-glucuronosyltransferase 1A6 (Homo sapiens, UniProt P19224); experiment: Activation of UGT1A6 in pooled mixed-gender human liver microsomes at 50 uM preincubated at 37 degC for 3 mins before UDPGA addition by HPLC method; assay type: ADME
# T4 sequence (P19224 whole entry): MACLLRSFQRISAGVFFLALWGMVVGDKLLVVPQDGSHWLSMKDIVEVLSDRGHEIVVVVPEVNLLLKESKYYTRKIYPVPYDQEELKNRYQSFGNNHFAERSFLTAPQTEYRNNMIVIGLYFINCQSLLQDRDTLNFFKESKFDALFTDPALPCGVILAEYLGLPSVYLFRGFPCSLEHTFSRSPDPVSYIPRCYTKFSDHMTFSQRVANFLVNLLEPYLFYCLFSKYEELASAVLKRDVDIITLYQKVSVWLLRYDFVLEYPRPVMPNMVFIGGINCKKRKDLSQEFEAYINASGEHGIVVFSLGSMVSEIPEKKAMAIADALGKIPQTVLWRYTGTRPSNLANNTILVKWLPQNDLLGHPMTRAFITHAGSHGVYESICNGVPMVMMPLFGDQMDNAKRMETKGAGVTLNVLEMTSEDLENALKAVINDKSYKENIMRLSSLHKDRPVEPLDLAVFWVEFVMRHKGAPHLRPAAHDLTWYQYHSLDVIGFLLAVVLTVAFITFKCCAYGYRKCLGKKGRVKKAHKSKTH
# [8] = molecular target: T4, UDP-glucuronosyltransferase 1A6; experiment: Inhibition of UGT1A6 in pooled mixed-gender human liver microsomes using 4-methylumbelliferone substrate by HPLC method; assay type: ADME
# [9] = test system: Liver microsome; experiment: Half life in pooled mixed-gender human liver microsomes at 50 uM in presence of NADPH pre-incubated for 3 mins before NADPH addition followed by incubation for 60 mins by reversed-phase HPLC method; assay type: ADME; details: 1 h
# [10] = molecular target: T5, UDP-glucuronosyltransferase 1A4 (Homo sapiens, UniProt P22310); experiment: Inhibition of UGT1A4 in pooled mixed-gender human liver microsomes using 4-methylumbelliferone substrate by HPLC method; assay type: ADME
# T5 sequence (P22310 whole entry): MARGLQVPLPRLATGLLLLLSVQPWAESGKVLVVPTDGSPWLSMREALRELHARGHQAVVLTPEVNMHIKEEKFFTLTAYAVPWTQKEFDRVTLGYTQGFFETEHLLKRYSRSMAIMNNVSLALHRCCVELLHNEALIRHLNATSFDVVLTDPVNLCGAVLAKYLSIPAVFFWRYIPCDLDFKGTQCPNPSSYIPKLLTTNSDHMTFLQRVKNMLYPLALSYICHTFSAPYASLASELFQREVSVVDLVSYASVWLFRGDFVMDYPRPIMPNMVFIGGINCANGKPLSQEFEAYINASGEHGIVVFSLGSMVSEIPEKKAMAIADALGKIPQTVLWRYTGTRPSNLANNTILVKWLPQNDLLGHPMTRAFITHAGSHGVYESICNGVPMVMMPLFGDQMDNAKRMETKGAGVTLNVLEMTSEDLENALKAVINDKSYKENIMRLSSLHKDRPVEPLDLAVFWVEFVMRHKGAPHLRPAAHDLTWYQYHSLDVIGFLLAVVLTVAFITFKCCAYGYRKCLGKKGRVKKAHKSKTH
# [11] = molecular target: T1, Cytochrome P450 3A4; experiment: Activation of CYP3A4 in pooled mixed-gender human liver microsomes using testosterone substrate in presence of NADPH pre-incubated for 3 mins by HPLC-UV detection method; assay type: ADME
# [12] = molecular target: T5, UDP-glucuronosyltransferase 1A4; experiment: Activation of UGT1A4 in pooled mixed-gender human liver microsomes at 100 uM preincubated at 37 degC for 3 mins before UDPGA addition by HPLC method; assay type: ADME
# [13] = Dissociation constant, pKa of the compound; assay type: physicochemical
# [14] = molecular target: T1, Cytochrome P450 3A4; experiment: Inhibition of CYP3A4 in pooled mixed-gender human liver microsomes at <25 uM using testosterone substrate in presence of NADPH pre-incubated for 3 mins by HPLC-UV detection method; assay type: ADME
# [15] = molecular target: T2, UDP-glucuronosyltransferase 2B7; experiment: Drug metabolism assessed as UGT2B7-mediated compound glucuronidation in pooled mixed-gender human liver microsomes at 50 uM preincubated at 37 degC for 3 mins before UDPGA addition by HPLC method; assay type: ADME
# [16] = molecular target: T5, UDP-glucuronosyltransferase 1A4; experiment: Drug metabolism assessed as UGT1A4-mediated compound glucuronidation in pooled mixed-gender human liver microsomes at 50 uM preincubated at 37 degC for 3 mins before UDPGA addition by HPLC method; assay type: ADME
# [17] = molecular target: T1, Cytochrome P450 3A4; experiment: Activation of CYP3A4 in pooled mixed-gender human liver microsomes using triazolam substrate in presence of NADPH pre-incubated for 3 mins by HPLC-UV detection method; assay type: ADME
# [18] = test system: Human immunodeficiency virus 1; experiment: Antiviral activity against HIV1 infected in human MAGI-R5 cells; assay type: functional, organism-based; details: Human immunodeficiency virus 1, MAGI-R5
# [19] = molecular target: T4, UDP-glucuronosyltransferase 1A6; experiment: Drug metabolism assessed as UGT1A6-mediated compound glucuronidation in pooled mixed-gender human liver microsomes at 50 uM preincubated at 37 degC for 3 mins before UDPGA addition by HPLC method; assay type: ADME
# [20] = molecular target: T6, UDP-glucuronosyltransferase 1A9 (Homo sapiens, UniProt O60656); experiment: Activation of UGT1A9 in pooled mixed-gender human liver microsomes at 50 uM preincubated at 37 degC for 3 mins before UDPGA addition by HPLC method; assay type: ADME
# T6 sequence (O60656 whole entry): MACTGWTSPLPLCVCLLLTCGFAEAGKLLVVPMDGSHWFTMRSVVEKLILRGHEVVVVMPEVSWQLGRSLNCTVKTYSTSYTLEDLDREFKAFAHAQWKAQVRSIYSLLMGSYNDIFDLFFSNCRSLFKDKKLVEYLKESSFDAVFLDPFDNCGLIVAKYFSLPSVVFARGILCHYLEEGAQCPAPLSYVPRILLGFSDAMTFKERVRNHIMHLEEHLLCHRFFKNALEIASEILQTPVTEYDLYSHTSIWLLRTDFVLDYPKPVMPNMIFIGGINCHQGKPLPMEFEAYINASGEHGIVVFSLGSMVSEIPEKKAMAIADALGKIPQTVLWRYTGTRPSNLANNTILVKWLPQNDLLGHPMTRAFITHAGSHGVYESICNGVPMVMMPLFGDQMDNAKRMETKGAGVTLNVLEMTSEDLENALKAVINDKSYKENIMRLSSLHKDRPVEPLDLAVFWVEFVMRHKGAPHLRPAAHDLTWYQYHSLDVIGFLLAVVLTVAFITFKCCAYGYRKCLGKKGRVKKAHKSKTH
# [21] = molecular target: T1, Cytochrome P450 3A4; experiment: Inhibition of CYP3A4 in pooled mixed-gender human liver microsomes using testosterone substrate in presence of NADPH pre-incubated for 3 mins by HPLC-UV detection method; assay type: ADME
# [22] = molecular target: T5, UDP-glucuronosyltransferase 1A4; experiment: Activation of UGT1A4 in pooled mixed-gender human liver microsomes at 50 uM preincubated at 37 degC for 3 mins before UDPGA addition by HPLC method; assay type: ADME
# [23] = molecular target: T7, UDP-glucuronosyltransferase 1A1 (Homo sapiens, UniProt P22309); experiment: Inhibition of UGT1A1 in pooled mixed-gender human liver microsomes using 4-methylumbelliferone substrate by HPLC method; assay type: ADME
# T7 sequence (P22309 whole entry): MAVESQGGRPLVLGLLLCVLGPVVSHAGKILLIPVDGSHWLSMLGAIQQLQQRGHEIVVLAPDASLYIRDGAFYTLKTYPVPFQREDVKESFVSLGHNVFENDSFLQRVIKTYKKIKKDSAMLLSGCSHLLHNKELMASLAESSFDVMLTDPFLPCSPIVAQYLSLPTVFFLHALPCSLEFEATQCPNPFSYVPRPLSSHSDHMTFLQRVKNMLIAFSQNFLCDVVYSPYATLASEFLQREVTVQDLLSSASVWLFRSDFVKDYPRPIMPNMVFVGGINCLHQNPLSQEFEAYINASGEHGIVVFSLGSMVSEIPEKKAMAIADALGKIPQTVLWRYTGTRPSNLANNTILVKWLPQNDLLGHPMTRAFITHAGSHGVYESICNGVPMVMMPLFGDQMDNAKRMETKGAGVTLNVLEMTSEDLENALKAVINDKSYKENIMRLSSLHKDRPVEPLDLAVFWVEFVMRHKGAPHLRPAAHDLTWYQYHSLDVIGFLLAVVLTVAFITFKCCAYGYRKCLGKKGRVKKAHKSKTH
# [24] = molecular target: T7, UDP-glucuronosyltransferase 1A1; experiment: Activation of UGT1A1 in pooled mixed-gender human liver microsomes at 50 uM preincubated at 37 degC for 3 mins before UDPGA addition by HPLC method; assay type: ADME
# [25] = molecular target: T6, UDP-glucuronosyltransferase 1A9; experiment: Drug metabolism assessed as UGT1A9-mediated compound glucuronidation in pooled mixed-gender human liver microsomes at 50 uM preincubated at 37 degC for 3 mins before UDPGA addition by HPLC method; assay type: ADME
# [26] = molecular target: T1, Cytochrome P450 3A4; experiment: Inhibition of CYP3A4 in pooled mixed-gender human liver microsomes using triazolam substrate in presence of NADPH pre-incubated for 3 mins by HPLC-UV detection method; assay type: ADME
# [27] = molecular target: T7, UDP-glucuronosyltransferase 1A1; experiment: Drug metabolism assessed as UGT1A1-mediated compound glucuronidation in pooled mixed-gender human liver microsomes at 50 uM preincubated at 37 degC for 3 mins before UDPGA addition by HPLC method; assay type: ADME
# [28] = molecular target: T3, Cytochrome P450 2D6; experiment: Inhibition of […] in pooled mixed-gender human liver microsomes using dextromethorphan substrate in presence of NADPH pre-incubated for 3 mins by HPLC-UV detection method; assay type: ADME
# [29] = molecular target: T6, UDP-glucuronosyltransferase 1A9; experiment: Inhibition of UGT1A9 in pooled mixed-gender human liver microsomes using 4-methylumbelliferone substrate by HPLC method; assay type: ADME
structure (smiles),measurement,setting,value
[H]/N=C(/N)N[C@H]1[C@H](O)[C@@H](O)[C@H](O[C@@H]2O[C@@H](C)[C@](O)(C=O)[C@H]2O[C@@H]2O[C@@H](CO)[C@H](O)[C@@H](O)[C@@H]2NC)[C@@H](N/C(N)=N\[H])[C@@H]1O [STREPTOMYCIN],"viability at 168 h, 4 times MIC",[1],90%
O=C(/C=C(\O)C(=O)N1CCN(c2ccc(-n3cccc3)cc2)CC1)c1cc(Cc2cc(F)cc(F)c2)cn(Cc2ccccc2F)c1=O,inhibition (INH),[2],Not Active
same,Activity,[3],Not Active
same,IC50,[4],> 300 µM
same,inhibition (INH),[5],Not Active
same,Activity,[6],Not Active
same,Activity,[7],Not Active
same,IC50,[8],> 300 µM
same,t1/2,[9],14.4 h
same,IC50,[10],Not Active
same,Activity,[11],Not Active
same,Activity,[12],Active
same,pKa,[13],9
same,inhibition (INH),[14],Not Active
same,Drug metabolism,[15],metabolite_notdetected
same,Drug metabolism,[16],metabolite_notdetected
same,Activity,[17],Not Active
same,IC50,[18],0.05 µM
same,Drug metabolism,[19],metabolite_notdetected
same,Activity,[20],Not Active
same,IC50,[21],> 50 µM
same,Activity,[22],Not Active
same,IC50,[23],> 300 µM
same,Activity,[24],Not Active
same,"viability at 168 h, 4 times MIC",[1],> 85%
same,Drug metabolism,[25],metabolite_notdetected
same,IC50,[26],> 85 µM
same,Drug metabolism,[27],metabolite_notdetected
same,IC50,[28],> 185 µM
same,IC50,[29],> 300 µM
Cc1nnc(C(=O)NC(C)(C)c2nc(C(=O)NCc3ccc(F)cc3)c(O)c(=O)n2C)o1 [RALTEGRAVIR],Drug metabolism,[15],metabolite_detected
same,Drug metabolism,[16],metabolite_detected
same,Drug metabolism,[19],metabolite_detected
same,Drug metabolism,[25],metabolite_detected
same,Drug metabolism,[27],metabolite_detected
